Where “and” joins values, the source holds several entries; their conditions need not be identical. Equal entries are not always repeated.
Key:
patients = assay: Adverse effects of treatment with very low concentration atropine composition (pupil dilation, loss of accommodation); format: in vivo, human; conditions: composition with very low concentration of atropine (less than 0.025%, e.g. 0.01%); mean +/− SD
Description: The pupil dilation associated with the treatment is often no greater than 2 mm, e.g., no greater than 1.9 mm, no greater than 1.8 mm, no greater than 1.7 mm, no greater than 1.5 mm, or no greater than 1.49 mm. Typically, patients treated with the composition disclosed above may experience pupil dilation of 0.74+/−0.75 mm. The loss of accommodation associated with the treatment is also minimal, typically no greater than 10 D, e.g., no greater than 9 D, no greater than 8.5 D, no greater than 8.8 D, or no greater than 8 D. Typically, patents treated with the composition disclosed above may experience a loss of accommodation of 4.6+/−4.2 D.

B6J (Mus musculus) mice = assay: Murine myopia model (−10 D lens), atropine sulfate eye drops prior to inducing myopia, ocular biometry; format: in vivo
Method: Animals: Breeding pair B6J (Mus musculus) mice were obtained from Jackson Lab and produced offspring. Naive control animals were housed in groups of 6 while experimental animals were housed individually in standard mouse cages after 21 days of age at 25° C. on a schedule of 12:12 h of light on and off with mouse pellets and water available ad libidum. Approval was obtained from the SingHealth Institutional Animal Care and Use of Committee (IACUC) and all procedures performed in this study complied with the Association of Research in Vision and Ophthalmology (ARVO) Statement for the Use of Animals in Ophthalmology and Vision Research.
Murine Myopia Model: A −10 D contact lens (PMMA Contact Lens in Grey Tint, 8.5 mm diameter, 8 mm base curve, refractive Index: 1.43, axial thickness: 0.5 mm) was placed over the right eye on day 21 by gluing to an annulus of velcro, and then attaching to a matching piece of velcro that had been previously sutured to the skin around the eye. The spectacle lenses were cleaned daily in dim light and left eyes were uncovered and served as controls. […]
Ocular biometry assessment: Refractions and biometry measurements were recorded every week until the end of the study. Axial length was measured with in vivo Optic Low Coherence Interferometry (OLCI-AcMaster). Refraction was measured by automated eccentric photorefractor. […]

myopic children = conditions: 0.01% atropine daily, cited from earlier work
[1] = Body weights in the lens-induced myopia study; format: in vivo, mice; conditions: 0.01% atropine topical; post-natal days 22, 35 and 49
Method: Ocular biometry such as axial length (AL) and refraction measurements were measured as described in Example 2. The measurements were done just before and 2 weeks after lens-induction, at days 35 and 49, respectively. The data was analyzed using the GraphPad Prism software version 7.02. Changes in AL and refraction between any two groups were analyzed using independent unpaired t-tests. A difference at p value<0.05 was considered statistically significant. Data are reported as mean+/−SEM. The body weights were recorded at post-natal days 22, 35 and 49. […] Changes in AL and refraction at day 49 relative to measurements at day 35 are shown in FIG. 3A and FIG. 3B, respectively.

C57BL/6J mice = assay: Spectacle lens-induced myopia (−15 D lens) model, ocular biometry (axial length, refraction) after 0.01% atropine pre-treatment; format: in vivo; conditions: for Change in AL, Avg +/− SEM: Group 2 mean (n=7), 0.01% atropine pre-treatment for 2 weeks
Method: Animals: Three weeks old C57BL/6J mice were purchased from InVivos, Singapore and were held at the animal holding unit of SingHealth Experimental Medicine Centre. The experimental animals were housed individually in standard mouse cages at 25° C. on a schedule of 12:12 h of light on (325 lx) and off (0 lx), with mouse pellets and water available ad libidum. All the procedures performed in this study complied with the Association of Research in Vision and Ophthalmology (ARVO) Statement for the Use of Animals in Ophthalmic and Vision Research and were approved by SingHealth IACUC. Both the eyes of each animal were screened for the ophthalmic abnormalities, such as corneal opacities and anterior polar cataracts.
Mouse model of experimental myopia: Spectacle lens-induced myopia model was established by placing −15 D hard lens on the right eye of the animal, which served as the experimental eye, at post-natal day 35. Briefly, a −15 D lens (PMMA spectacle lens in blue tint, radius of outer curvature 8.5, inner curvature 8 mm, lens thickness 0.5 mm, Flexilens, India) was glued to an annulus (with 8 mm base curve) of Velcro. This mating piece was then attached to the Velcro that had been previously glued to the hair around the right experimental eye using a cyanoacrylate (Super Glue gel, UHU, Germany). This set up ensures that an air gap of 1.5 mm existed between the back part of the lens and the anterior surface of the cornea, so that the contact lens optically acted as a spectacle lens. The right eye of naïve group was attached with plano lens and acted as a negative control in the experimental study. Both the eyes in each animal were examined daily for any infection and the lenses were also cleaned regularly in dim red light. Left eyes were kept uncovered and were not used for any ocular biometry measurement in this study. Elizabethan collars made from thin plastic were fitted around the neck of each mouse upon lens-induction. This was done so as to prevent the mice from removing their lenses. Food pellets were placed on the floor of the cage to make eating easier. This strategy has also been followed previously by other groups doing mouse model of lens-induced myopia (Schaeffel et al., 2004).
Treatment protocols: A total of 27 mice were divided into 4 different groups as mentioned in Table 1, below. […] 7 μL of drug was administered topically to the right eye in dim red light at the same time each day. This was followed by lens (either −15 D or plano) induction on post-natal day 35, that was kept attached until day 49.
Ocular biometry such as axial length (AL) and refraction measurements were measured as described in Example 2. The measurements were done just before and 2 weeks after lens-induction, at days 35 and 49, respectively. The data was analyzed using the GraphPad Prism software version 7.02. Changes in AL and refraction between any two groups were analyzed using independent unpaired t-tests. A difference at p value<0.05 was considered statistically significant. Data are reported as mean+/−SEM. The body weights were recorded at post-natal days 22, 35 and 49.

[2] = Group 2, 0.01% atropine pre-treatment day 22-35, 2 weeks after −15 D lens induction, individual mice
[3] = Group 2, 0.01% atropine pre-treatment, day 49 relative to day 35, −15 D lens, individual mice

## CN1[C@@H]2CC[C@H]1C[C@@H](OC(=O)C(CO)c1ccccc1)C2 (stereo partly shown) [Atropine, atropine]
patients
  Loss of accommodation: 4.6+/−4.2 D
  Pupil dilation: 0.74+/−0.75 mm
B6J (Mus musculus) mice; Atropine sulfate 1% for 2 weeks prior to −10 D lens for 4 weeks, FIG. 1B, p<0.01 vs −10 D lens alone
  Refractive error (refraction state): remained hyperopic
B6J (Mus musculus) mice; Group 2: 1% daily 10 μl topical from day 21 for 2 weeks, then −10 D lens for 4 weeks, FIG. 1A, p<0.01, n=18
  Effect on axial elongation (axial length): blocked most of the elongation of axial length
Myopic children; ATOM1 and ATOM2
  Reduction of mean 2-year decline in SE vs placebo: about 58%
Myopic children; placebo about −1.2 D (Chia et al.)
  Mean 2-year decline in SE: ~−0.5 D
[1]
  Impact on body weights: Neither the drug (atropine and vehicle) nor the lens treatment adversely impacted the body weights
C57BL/6J mice; 0.01% atropine topical for 2 weeks before lens-induction, two-tailed p-value=0.1557
  Reduction of the increase in AL as compared to vehicle pre-treated myopic eyes: ~15%
C57BL/6J mice; Group 2, 0.01% atropine 7 μL topical daily, day 22-35, right eye, just before −15 D lens induction, individual mice
  Refraction at D35: 7.44 Diopter and 3.71 Diopter and 7.66 Diopter and 5.96 Diopter and 5.29 Diopter and 5.43 Diopter and 8.34 Diopter
C57BL/6J mice; Group 2, 0.01% atropine 7 μL topical daily, post-natal day 22-35, right eye, just before −15 D lens induction, individual mice
  AL at D35: 3.189 mm and 3.159 mm and 3.195 mm and 3.214 mm and 3.297 mm and 3.250 mm and 3.269 mm
C57BL/6J mice; [2]
  AL at D49: 3.268 mm and 3.238 mm and 3.277 mm and 3.340 mm and 3.374 mm and 3.335 mm and 3.386 mm
  Refraction at D49: 5.22 Diopter and −1.85 Diopter and 6.30 Diopter and 6.26 Diopter and 6.27 Diopter and 4.17 Diopter and 8.14 Diopter
C57BL/6J mice; [3]
  Change in AL: 0.079 mm (2×) and 0.082 mm and 0.126 mm and 0.077 mm and 0.084 mm and 0.117 mm
  Change in refraction: −2.22 Diopter and −5.57 Diopter and −1.37 Diopter and 0.30 Diopter and 0.99 Diopter and −1.26 Diopter and −0.20 Diopter
C57BL/6J mice; day 49 relative to day 35, −15 D lens
  Change in AL, Avg +/− SEM: 0.092 mm
C57BL/6J mice; day 49 relative to day 35, −15 D lens, listed as atropine
  Change in AL, Avg +/− SEM: 0.092 mm
